Biological target: T1, CCR2 (Homo sapiens, UniProt P41597)
T1 construct: expressed in transfected cells; geneticin and hygromycin selection
Assay: Calcium activity assay on FLIPR Tetra in HEK-Gqi5 cells stably expressing CCR2
Assay type: cell-based
Conditions: for Emax: read-out: CCR2 ANTAGONISM Rel. Eff. (%)
Experimental: HEK-Gqi5 cells stably expressing CCR2 were cultured in DMEM high glucose, 10% FBS, 1% PSA, 400 μg/ml geneticin and 50 μg/ml hygromycin. Appropriate positive control chemokines (MCP-1, MIP1A or RANTES) was used as the positive control agonist for screening compound-induced calcium activity assayed on the FLIPR^Tetra. The drug plates were prepared in 384-well microplates using the EP3 and the MultiPROBE robotic liquid handling systems. Compounds were synthesized and tested for CCR2 activity.

T1 sequence (P41597 whole entry, species assumed): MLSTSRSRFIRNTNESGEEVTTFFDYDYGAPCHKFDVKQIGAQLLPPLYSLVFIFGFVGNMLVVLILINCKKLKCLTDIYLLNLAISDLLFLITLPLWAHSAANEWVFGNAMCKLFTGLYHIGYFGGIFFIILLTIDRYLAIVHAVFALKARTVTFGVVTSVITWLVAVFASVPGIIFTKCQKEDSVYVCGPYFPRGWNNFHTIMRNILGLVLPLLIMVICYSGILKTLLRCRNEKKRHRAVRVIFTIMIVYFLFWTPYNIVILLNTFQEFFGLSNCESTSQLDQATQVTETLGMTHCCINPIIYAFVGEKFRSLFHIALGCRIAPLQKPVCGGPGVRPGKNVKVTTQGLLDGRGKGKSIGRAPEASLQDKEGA

SMILES | IC50 [nM] | Emax [%]
COC(=O)c1ccccc1CSc1ccc(Cl)cc1NS(=O)(=O)c1cc2ccccc2s1 [Compound 1] | 198 | 86
O=C(O)c1ccccc1CSc1ccc(Cl)cc1NS(=O)(=O)c1cc2ccccc2s1 [Compound 2, 2-[({2-[(1-Benzothiophen-2-ylsulfonyl)amino]-4-chlorophenyl}sulfanyl)methyl]benzoic acid] | 4 | 100
Cc1ccc(SCc2ccccc2C(=O)O)c(NS(=O)(=O)c2cc3ccccc3s2)c1 [Compound 4, 2-[({2-[(1-Benzothiophen-2-ylsulfonyl)amino]-4-methylphenyl}sulfanyl)methyl]benzoic acid] |  | 99
Nc1cccc(CS(=O)(=O)c2ccc(Cl)cc2NS(=O)(=O)c2cc3ccccc3s2)c1 [Compound 7, N-{2-[(3-Aminobenzyl)sulfonyl]-5-chlorophenyl}-1-benzothiophene-2-sulfonamide] | 77 | 98
Cc1ccc(NS(=O)(=O)c2cc3ccccc3s2)c(SCc2ccccc2C(=O)O)c1 [Compound 9, 2-[({2-[(1-Benzothiophen-2-ylsulfonyl)amino]-5-methylphenyl}sulfanyl)methyl]benzoic acid] | 114 | 88
O=S(=O)(Nc1cccnc1SCc1ccccc1)c1cc2ccccc2s1 [Compound 10, N-[2-(Benzylsulfanyl)pyridin-3-yl]-1-benzothiophene-2-sulfonamide] | 2250 | 44
O=S(=O)(Cc1ccccc1)c1ncccc1NS(=O)(=O)c1cc2ccccc2s1 [Compound 11, N-[2-(Benzylsulfonyl)pyridin-3-yl]-1-benzothiophene-2-sulfonamide] | 85 | 93
O=S(=O)(Nc1cccnc1[S+]([O-])Cc1ccccc1)c1cc2ccccc2s1 (stereo not shown) [Compound 12, N-[2-(Benzylsulfinyl)pyridin-3-yl]-1-benzothiophene-2-sulfonamide] | 122 | 72
COC(=O)c1ccccc1CSc1ccc(F)cc1NS(=O)(=O)c1cc2ccccc2s1 [Compound 13, methyl 2-[({2-[(1-benzothiophen-2-ylsulfonyl)amino]-4-fluorophenyl}sulfanyl)methyl]benzoate] | 268 | 68
O=C(O)c1ccccc1CSc1ccc(F)cc1NS(=O)(=O)c1cc2ccccc2s1 [Compound 14, 2-[({2-[(1-benzothiophen-2-ylsulfonyl)amino]-4-fluorophenyl}sulfanyl)methyl]benzoic acid] | < 10 | 96
